Laboratory results from PubChem BioAssay (NCI).
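Results reflect a 48-hour exposure of cells in 96-well plates to compound at five concentrations. The concentration for full growth arrest is given as TGI.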

What was measured:
Test in all cases: DTP human tumour cell line panel, 48 h
XF 498 CNS = test system: XF 498 CNS
A498 renal = test system: A498 renal
LXFL 529 NSCLC = test system: LXFL 529 NSCLC
HL-60(TB) leukemia = test system: HL-60(TB) leukemia
SF-268 CNS = test system: SF-268 CNS
KM12 colon = test system: KM12 colon
786-0 renal = test system: 786-0 renal
TK-10 renal = test system: TK-10 renal
DLD-1 colon = test system: DLD-1 colon
SK-MEL-2 melanoma = test system: SK-MEL-2 melanoma

| Compound | TGI (XF 498 CNS) [µM] | TGI (A498 renal) [µM] | TGI (LXFL 529 NSCLC) [µM] | TGI (HL-60(TB) leukemia) [µM] | TGI (SF-268 CNS) [µM] | TGI (KM12 colon) [µM] | TGI (786-0 renal) [µM] | TGI (TK-10 renal) [µM] | TGI (DLD-1 colon) [µM] | TGI (SK-MEL-2 melanoma) [µM] |
| --- | --- | --- | --- | --- | --- | --- | --- | --- | --- | --- |
| COc1ccc(C2=NN(c3ccccc3)C[N+](c3ccc(OC)cc3)=N2)cc1 | 39.1 | > 100 | 45.4 | > 100 | > 100 | 54.7 | > 100 | > 100 | > 100 |  |
| COc1ccc(C(=O)Cc2ccc(Br)cc2)cc1OC | 71 | > 100 | > 100 | > 100 | > 100 |  |  | > 100 | > 100 | > 100 |
